# Like-named read-outs stand apart in the source and are kept apart here.
# Tests used:
# Format in all cases: cell-based
# Aspergillus niger [1] = test: General antimicrobial activity, 5-fold serial dilution test in agar (MIC); conditions: 168 h, 28° C., seven days, growth only at lower concentration of range, read-out: minimum inhibitory concentration (MIC), F1
# Procedure: (§1) General antibacterial and antifungal activity was evaluated by a 5-fold serial dilution test in agar. In this test, compounds were prepared as 6% solutions in dimethylformamide or ethanol. The 6% solution was then 5-fold serially diluted in test tubes to give the desired concentrations when mixed with agar and poured into sterile Petri dishes. Tryptone glucose extract agar was used for the bacterial testing; mildew glucose agar for the fungal testing. The bacterial plates were spot inoculated with 24-hour nutrient broth cultures and incubated at 37° C. for 48 hours. The fungal plates were spot inoculated with spore suspensions and incubated at 28° C. for seven days. At the end of the incubation periods, all plates were examined for growth. The minimum inhibitory concentration (MIC) for each organism is expressed in Table I. In the ranges presented, growth is observed only at the lower concentration.
# (§2) The activity is presented in Tabular Form (Table I) using the following key.
# Aspergillus oryzae = test: as above; conditions: 168 h, 28° C., seven days, growth only at lower concentration of range, read-out: minimum inhibitory concentration (MIC), F2
# Procedure: as §1, §2
# Aureobasidium pullulans = test: as above; conditions: 168 h, 28° C., seven days, growth only at lower concentration of range, read-out: minimum inhibitory concentration (MIC), F4
# Procedure: as §1, §2
# Bacillus subtilis = test: as above; conditions: 37° C., 48 hours, growth only at lower concentration of range, read-out: minimum inhibitory concentration (MIC), B5
# Procedure: as §1, §2
# Escherichia coli = test: as above; conditions: 37° C., 48 hours, growth only at lower concentration of range, read-out: minimum inhibitory concentration (MIC), B2
# Procedure: as §1, §2
# Penicillium piscarium = test: as above; conditions: 168 h, 28° C., seven days, growth only at lower concentration of range, read-out: minimum inhibitory concentration (MIC), F3
# Procedure: as §1, §2
# Proteus vulgaris = test: as above; conditions: 37° C., 48 hours, growth only at lower concentration of range, read-out: minimum inhibitory concentration (MIC), B4
# Procedure: as §1, §2
# Pseudomonas aeruginosa [2] = test: as above; conditions: 37° C., 48 hours, growth only at lower concentration of range, read-out: minimum inhibitory concentration (MIC), B3
# Procedure: as §1, §2
# Staphylococcus aureus = test: as above; conditions: 37° C., 48 hours, growth only at lower concentration of range, read-out: minimum inhibitory concentration (MIC), B1
# Procedure: as §1, §2
# Aspergillus niger [3] = test: Utility as a cosmetic preservative (cosmetic lotion); conditions: weekly reinoculation
# Procedure: (§3) The 2-Chloro-3-oxobutyramide derivatives are effective cosmetic preservatives. Two-fold serial dilutions of 6% solutions of the 2-haloacetoacetic acid derivatives in dimethylformamide were added to a cosmetic lotion of the following formulation: |Stearic acid 1.4 g |Arlacel 60 (sorbitan |monostearate) 0.7 g |Tween 20 Polyoxethylene |(20) sorbitan |monostearate 1.6 g |Distilled water 94.0 g The lotions were inoculated with both Pseudomonas aeruginosa and Aspergillus niger and incubated at 28° C. At weekly intervals, the lotions were examined for microorganisms by conventional streak-plate methods or by macroscopic observation. The lotions were then reinoculated with the test organisms and reincubated.
# Pseudomonas aeruginosa [4] = test: as above; conditions: weekly reinoculation
# Procedure: as §3
# Pseudomonas aeruginosa [5] = test: Utility in water and oil emulsions (3.3% cutting oil emulsions); conditions: 28° C., weekly reinoculation, read-out: Minimum Inhibitory Concentration Range
# Procedure: The utility of the 2-chloro-3-oxobutyramide derivatives in water and oil emulsions is illustrated below using a commercially available cutting oil. In running these tests, two-fold serial dilutions of 6% solutions of the compound in dimethylformamide was added to 3.3% cutting oil emulsions. The emulsions were prepared by diluting with water a commercially available cutting oil concentrate. The emulsions were inoculated with a culture of Pseudomonas aeruginosa and incubated at 28° C. on a rotary shaker. At weekly intervals, the emulsions were examined for bacteria by conventional streak-plate methods. The emulsions were then reinoculated with Pseudomonas aeruginosa and reincubated. […] indicate the activity range for that compound.
# A. niger = test: Effectiveness as slimicide for pulp and paper mill water systems; conditions: range: growth at lower, none at higher, 62.5 = lowest concentration tested, no growth at it
# Procedure: (§4) Various quantities of a 6% solution of this compound in dimethylformamide were incorporated into 24 ml of a test substrate composed as follows: 84.4 g Whatman No. 2 powdered cellulose 2.6 g Sodium nitrate 1.0 g Calcium sulfate 6.5 g Maltose 1.0 g Nutrient Broth, Difco 10.0 ml Mersize Rm […] (Monsanto) 2.5 ml 2% Alum 900 ml Distilled water The samples were inoculated with four different organisms and incubated at 28° C. At weekly intervals the samples were examined for the presence of microbial growth and reinoculated during a total incubation period of four weeks.
# E. aerogenes = test: as above; conditions: Klebsiella aerogenes, range: growth at lower, read-out: Effectiveness as slimicide (inhibitory concentration range)
# Procedure: as §4
# P. aeruginosa = test: as above; conditions: 62.5 = lowest concentration tested, no growth at it
# Procedure: as §4
# P. piscarium = test: as above; conditions: read-out: Effectiveness as slimicide (inhibitory concentration range)
# Procedure: as §4
# [6] = Week 1, 3.3% cutting oil emulsion
# [7] = Week 2, 3.3% cutting oil emulsion
# [8] = Week 3, 3.3% cutting oil emulsion
# [9] = Week 4, 3.3% cutting oil emulsion
SMILES,MIC (Aspergillus niger [1]) [µg/mL],MIC (Aspergillus oryzae) [µg/mL],MIC (Aureobasidium pullulans) [µg/mL],MIC (Bacillus subtilis) [µg/mL],MIC (Escherichia coli) [µg/mL],MIC (Penicillium piscarium) [µg/mL],MIC (Proteus vulgaris) [µg/mL],MIC (Pseudomonas aeruginosa [2]) [µg/mL],MIC (Staphylococcus aureus) [µg/mL],"minimum inhibitory concentration effective in preventing microbial growth (Aspergillus niger [3]; Week 1, 28° C.)","minimum inhibitory concentration effective in preventing microbial growth (Aspergillus niger [3]; Week 2, 28° C.)","minimum inhibitory concentration effective in preventing microbial growth (Aspergillus niger [3]; Week 3, 28° C.)","minimum inhibitory concentration effective in preventing microbial growth (Aspergillus niger [3]; Week 4, 28° C.)","minimum inhibitory concentration effective in preventing microbial growth (Pseudomonas aeruginosa [4]; Week 1, 28° C.)","minimum inhibitory concentration effective in preventing microbial growth (Pseudomonas aeruginosa [4]; Week 2, 28° C.)","minimum inhibitory concentration effective in preventing microbial growth (Pseudomonas aeruginosa [4]; Week 3, 28° C.)","minimum inhibitory concentration effective in preventing microbial growth (Pseudomonas aeruginosa [4]; Week 4, 28° C.)",MIC (Pseudomonas aeruginosa [5]; [6]) [µg/mL],MIC (Pseudomonas aeruginosa [5]; [7]) [µg/mL],MIC (Pseudomonas aeruginosa [5]; [8]) [µg/mL],further results
CC(=O)C(Cl)C(N)=O (stereo not shown) [2-Chloro-3-oxobutyramide],15.3 to 76.8,15.3 to 76.8,15.3 to 76.8,15.3 to 76.8,15.3 to 76.8,15.3 to 76.8,15.3 to 76.8,15.3 to 76.8,15.3 to 76.8,5 (63-125 mcg/gm),5 (63-125 mcg/gm),4 (125-250 mcg/gm),2 (500-1000 mcg/gm),5 (63-125 mcg/gm),5 (63-125 mcg/gm),4 (125-250 mcg/gm),4 (125-250 mcg/gm),8 to 16,63 to 125,63 to 125,"MIC (Pseudomonas aeruginosa [5]; [9]): 63 to 125 µg/mL; MIC (A. niger; Aspergillus niger, week 1, 28° C., read-out: Effectiveness as slimicide (inhibitory concentration range)): 62.5 µg/mL; Effectiveness as slimicide (inhibitory concentration range) (A. niger; week 2, 28° C.): 62.5 µg/mL; Effectiveness as slimicide (inhibitory concentration range) (A. niger; week 3, 28° C.): 62.5 µg/mL; Effectiveness as slimicide (inhibitory concentration range) (A. niger; week 4, 28° C.): 62.5 µg/mL; MIC (E. aerogenes; week 1, 28° C., none at higher, 62.5 = lowest concentration tested, no growth at it): 62.5 µg/mL; MIC (E. aerogenes; week 2, 28° C., none at higher, 62.5 = lowest concentration tested, no growth at it): 62.5 µg/mL; MIC (E. aerogenes; week 3, 28° C., none at higher concentration): 62.5 to 125 µg/mL; MIC (E. aerogenes; week 4, 28° C., none at higher concentration): 62.5 to 125 µg/mL; MIC (P. aeruginosa; Pseudomonas aeruginosa, week 1, 28° C., read-out: Effectiveness as slimicide (inhibitory concentration range)): 62.5 µg/mL; Effectiveness as slimicide (inhibitory concentration range) (P. aeruginosa; week 2, 28° C.): 62.5 µg/mL; Effectiveness as slimicide (inhibitory concentration range) (P. aeruginosa; week 3, 28° C.): 62.5 µg/mL; Effectiveness as slimicide (inhibitory concentration range) (P. aeruginosa; week 4, 28° C.): 62.5 µg/mL; MIC (P. piscarium; week 1, 28° C., 62.5 = lowest concentration tested, no growth at it): 62.5 µg/mL; MIC (P. piscarium; week 2, 28° C., range: growth at lower, none at higher concentration): 62.5 to 125 µg/mL; MIC (P. piscarium; week 3, 28° C., range: growth at lower, none at higher concentration): 125 to 250 µg/mL; MIC (P. piscarium; week 4, 28° C., range: growth at lower, none at higher concentration): 125 to 250 µg/mL"
"CCOC(=O)NC(=O)C(Cl)C(C)=O (stereo not shown) [R1=H, R2=COOC2 H5, N-Carboethoxy-2-chloroacetoacetamide]",76.8 to 384,76.8 to 384,76.8 to 384,76.8 to 384,76.8 to 384,76.8 to 384,76.8 to 384,76.8 to 384,76.8 to 384,4 (125-250 mcg/gm),3 (250-500 mcg/gm),3 (250-500 mcg/gm),3 (250-500 mcg/gm),5 (63-125 mcg/gm),4 (125-250 mcg/gm),4 (125-250 mcg/gm),4 (125-250 mcg/gm),32 to 63,63 to 125,63 to 125,MIC (Pseudomonas aeruginosa [5]; [9]): 125 to 500 µg/mL

# Source: patent publication US4247712A, “Preservation of aqueous systems with 2-chloro-3-oxobutyramide derivatives” (Givaudan Corporation, priority 1979, dated 1981)
